Each structure is given as a SMILES string.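 All cell lines were grown in 96-well plates and treated with compound for 48 hours. Here, GI50 denotes the concentration required for 50% inhibition of growth. At the TGI there is no net growth.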

This note sets out measurements from PubChem BioAssay (NCI).

In the first experiment the test system is MOLT-4 leukemia. Briefly: growth of human tumour cells (NCI), 48 h.
Compound `C=C1C(=O)O[C@H]2/C=C(/C)C3=CC(=O)[C@@](C)(C[C@@H](OC(=O)/C(C)=C\C)C12)O3` (some centres not stated) came in with a TGI of 6.01 µM.

As for `O=S1OC2(c3ccccc3-c3ccccc32)c2ccccc21` (configuration not stated), the TGI is over 100 µM.

`CCOC(=N)CC(=O)Nc1cccc(C)c1C` showed a TGI of 7.46 µM.

Another experiment deals with NCI-H226 lung. The experiment can be described thus: growth of human tumour cells (NCI), 48 h.
In the case of `COc1cc2ccc3c4cc(OC)c(OC(C)C)cc4cnc3c2cc1OC`, the TGI is over 100 µM.

For the compound `CCc1ccccc1NC(=O)c1sc2nc3c(cc2c1N)C(=O)CCC3`, the GI50 is 23.2 µM and the TGI was over 100 µM.

As to `CCOC(=O)c1c[nH]c2oc(/C=N/N3CC(CN4CCOCC4)OC3=O)cc2c1=O` (configuration not stated), the TGI is over 100 µM.

With `O=C(Nc1ccc(-n2cc(-c3ccncc3)c(-c3ccc(Cl)c(O)c3)n2)cc1)Nc1ccc(Cl)c(C(F)(F)F)c1`, the GI50 is 2.76 µM and the TGI came to 10.8 µM.

Compound `CC(=O)c1sc(-c2nc(C)c(C(=O)/C=C\c3ccc(/C=C\C(=O)c4sc(-c5nc(C)c(C(C)=O)s5)nc4C)cc3)s2)nc1C` came in with a TGI of over 100 µM.

As to `COc1cc(C2=C(c3cn(C)c4ccccc34)COC2=O)cc(OC)c1OC`, the GI50 is 1.1 µM and the TGI was determined as 7.3 µM.

On to `COc1cc(C)c2c(c1C)OC(=O)c1c(C)c(Cl)c(O)c(C=O)c1O2`, for which the TGI stood at 87.6 µM.

Compound `COC(=O)/C(C=O)=C/Sc1ccccc1` showed a TGI of 44.6 µM.

Consider `COc1ccc2c(c1)[C@@]13CCCC[C@H]1[C@@H](C2)N(C)CC3=O`, for which the TGI amounted to 57.9 µM.

For the compound `CC1(C)O/C(=C\c2ccccc2)C(=O)/C(=C/c2ccccc2)O1`, the TGI is 96.3 µM.

`N=C(N)SCc1cccc(-c2nc3ccccc3c(=O)o2)c1` showed a TGI of over 100 µM.

Take `O=C1CC2C(=O)N(Cc3ccccc3)C1C=C2S(=O)(=O)c1ccccc1` (configuration not stated): the TGI was over 100 µM.

With `COc1ccc(Nc2c3ccccc3nc3occ(Cl)c23)cc1`, the GI50 is 25.1 µM and the TGI is over 100 µM.

As to `Cc1ccc(S(=O)(=O)NCCNc2nccc(-c3c(-c4ccc(F)cc4)nc4sccn34)n2)cc1`, the GI50 is 5.14 µM and the TGI was 97.3 µM.

`CC(C)CCCC(C)[C@H]1CCC2[C@H]3C(CC[C@@]21C)[C@@]1(C)CCC=C[C@]12C[C@@H]2[C@@H]3O` (some centres not stated) showed a TGI of over 100 µM.

`O=C(Nc1cc(Cl)ccc1Cl)C(=O)C(c1cnc2ccccc2n1)[N+](=O)[O-]` (configuration not stated) came in with a TGI of over 100 µM.

With `COC(=O)CCC(=O)CC1CC(=O)C2CCCN12` (configuration not stated), the TGI was over 100 µM.

As to `COc1ccc(OC)c2c(/C=C/c3ccc(N(C)C)cc3)ccnc12`, the TGI was over 10 µM.

The compound `C=C1C(=O)O[C@H]2/C=C(/C)C3=CC(=O)[C@@](C)(C[C@@H](OC(=O)/C(C)=C\C)C12)O3` (some centres not stated) showed a TGI of 11.1 µM.

On to `O=S1OC2(c3ccccc3-c3ccccc32)c2ccccc21` (configuration not stated), for which the TGI was over 100 µM.

`CCOC(=N)CC(=O)Nc1cccc(C)c1C` registered a TGI of over 100 µM.

A further experiment has as its system RPMI-8226 leukemia. Briefly: growth of human tumour cells (NCI), 48 h.
`COc1cc2ccc3c4cc(OC)c(OC(C)C)cc4cnc3c2cc1OC` returned a TGI of over 100 µM.

Turning to `CN1NC(=Nc2ccccc2)Sc2c1cnn(-c1ccccc1)c2=O`, the TGI is over 100 µM.

As for `CCc1ccccc1NC(=O)c1sc2nc3c(cc2c1N)C(=O)CCC3`, the GI50 was 0.782 µM and the TGI is over 30.9 µM.

With `CCOC(=O)c1c[nH]c2oc(/C=N/N3CC(CN4CCOCC4)OC3=O)cc2c1=O` (configuration not stated), the TGI is over 100 µM.

As to `CC(=O)c1sc(-c2nc(C)c(C(=O)/C=C\c3ccc(/C=C\C(=O)c4sc(-c5nc(C)c(C(C)=O)s5)nc4C)cc3)s2)nc1C`, the TGI was over 100 µM.

`COC(=O)/C(C)=C/[N+](=O)[O-]`: the TGI came out at 7.36 µM.

As to `CC(C)OC(=O)NNc1cc(Cl)ccc1Cl`, the TGI is over 100 µM.

In turn, `CCCCOC(=O)NC(=O)c1cn(CCCOC(=O)NCCCCCCNC(=O)OCCCn2cc(C(=O)NC(=O)OCCCC)c(=O)[nH]c2=O)c(=O)[nH]c1=O` showed a TGI of over 100 µM.

Take `COc1cc(C2=C(c3cn(C)c4ccccc34)COC2=O)cc(OC)c1OC`: the GI50 was 0.109 µM and the TGI was 1.95 µM.

The compound `COc1cc(C)c2c(c1C)OC(=O)c1c(C)c(Cl)c(O)c(C=O)c1O2` returned a TGI of 33.4 µM.

In turn, `COC(=O)/C(C=O)=C/Sc1ccccc1` yielded a TGI of over 100 µM.

`COc1ccc2c(c1)[C@@]13CCCC[C@H]1[C@@H](C2)N(C)CC3=O` displayed a TGI of 96.8 µM.

As to `CC1(C)O/C(=C\c2ccccc2)C(=O)/C(=C/c2ccccc2)O1`, the TGI is 54.6 µM.

Regarding `N=C(N)SCc1cccc(-c2nc3ccccc3c(=O)o2)c1`, the TGI was over 100 µM.

On to `COc1ccc(Nc2c3ccccc3nc3occ(Cl)c23)cc1`, for which the GI50 is 0.0145 µM and the TGI was determined as 0.571 µM.

Turning to `N.N.N.N.[Cl-].[Co+3].[N-]=[N+]=[N-].[N-]=[N+]=[N-]`, the GI50 was over 100 µM and the TGI is over 100 µM.

`CC(C)CCCC(C)[C@H]1CCC2[C@H]3C(CC[C@@]21C)[C@@]1(C)CCC=C[C@]12C[C@@H]2[C@@H]3O` (some centres not stated) had a TGI of over 100 µM.

The compound `O=C(Nc1cc(Cl)ccc1Cl)C(=O)C(c1cnc2ccccc2n1)[N+](=O)[O-]` (configuration not stated) gave a TGI of over 100 µM.

In turn, `COC(=O)CCC(=O)CC1CC(=O)C2CCCN12` (configuration not stated) came in with a TGI of over 100 µM.

The compound `O=S1OC2(c3ccccc3-c3ccccc32)c2ccccc21` (configuration not stated) had a TGI of over 100 µM.

A further experiment concerns SF-539 CNS. The experiment can be described thus: growth of human tumour cells (NCI), 48 h.
Compound `COc1cc2ccc3c4cc(OC)c(OC(C)C)cc4cnc3c2cc1OC` yielded a TGI of over 100 µM.

Compound `CN1NC(=Nc2ccccc2)Sc2c1cnn(-c1ccccc1)c2=O` yielded a TGI of over 100 µM.

In the case of `CCc1ccccc1NC(=O)c1sc2nc3c(cc2c1N)C(=O)CCC3`, the GI50 was 0.373 µM and the TGI is 3.15 µM.

For the compound `CCOC(=O)c1c[nH]c2oc(/C=N/N3CC(CN4CCOCC4)OC3=O)cc2c1=O` (configuration not stated), the TGI is over 100 µM.

Take `O=C(Nc1ccc(-n2cc(-c3ccncc3)c(-c3ccc(Cl)c(O)c3)n2)cc1)Nc1ccc(Cl)c(C(F)(F)F)c1`: the GI50 is 1.31 µM and the TGI was 3.48 µM.

On to `CC(=O)c1sc(-c2nc(C)c(C(=O)/C=C\c3ccc(/C=C\C(=O)c4sc(-c5nc(C)c(C(C)=O)s5)nc4C)cc3)s2)nc1C`, for which the TGI is over 100 µM.

As for `COC(=O)/C(C)=C/[N+](=O)[O-]`, the TGI amounted to 33.2 µM.

The compound `CC(C)OC(=O)NNc1cc(Cl)ccc1Cl` showed a TGI of over 100 µM.

On to `CCCCOC(=O)NC(=O)c1cn(CCCOC(=O)NCCCCCCNC(=O)OCCCn2cc(C(=O)NC(=O)OCCCC)c(=O)[nH]c2=O)c(=O)[nH]c1=O`, for which the TGI was over 100 µM.

For the compound `COc1cc(C2=C(c3cn(C)c4ccccc34)COC2=O)cc(OC)c1OC`, the GI50 was 0.106 µM and the TGI came to 0.932 µM.

For `COc1cc(C)c2c(c1C)OC(=O)c1c(C)c(Cl)c(O)c(C=O)c1O2`, the TGI stood at 26.6 µM.
